We go through one molecule from patent US20050171185A1, “Indole derivatives” (Fujisawa Pharmaceutical Co., Ltd., a Japanese corporation, priority 1998, published 2005).

The subject of this experiment is db/db mice. In words: Test for activity of decreasing plasma glucose using db/db mice. The format is in vivo. Particulars: female db/db mice, test compound mixed in powdered chow (0.01%) for 14 days, dose 3.2 mg/kg; difference between db/db and +/+ mouse groups defined as 100%. An excerpt:
Test Example: Test for Activity of Decreasing Plasma Glucose Using db/db Mice
3-(1-bromonaphthalen-2-ylmethyl)-5-((5-chloro-2-thiophenylsulfonyl)carbamoyl)-2-methylindole (Compound (23))
Five-week-old female mice [C57BL/KsJ-dbm db+/db+, C57BL/KsJ-dbm +m/+m (Jackson Laboratory)] were purchased, and were kept for 2 to 3 weeks. Then, these mice were used in the test.
A test compound was mixed with a powdered chow (CE-2, made by Nippon Clea) using a mortar. The mixing ratio was 0.01%. The mixed chow was changed twice a week for each group. The feed amount and the remaining amount were recorded, and the intake was calculated from the difference therebetween.
The female db/db mice were grouped according to the body weight, the plasma glucose, and the plasma triglyceride concentrations. […] Plasma glucose, triglyceride, and insulin concentrations were measured on day 0 and day 14 as well as plasma glucose and triglyceride concentrations on day 7. The body weight was measured on day 0, day 7, and day 14. […]
The plasma glucose was measured by a glucose oxidase method (Glucose CII-Test Wako made by Wako Pure Chemical Industries, Ltd.) using from 10 to 15 μl of plasma. The plasma triglyceride concentration was measured by a GPO-p-chlorophenol method (Triglyceride G-Test Wako made by Wako Pure Chemical Industries, Ltd.) or a GPO-DAOS method (Triglyceride E-Test Wako) using from 10 to 15 μl of plasma. […]

As to `Cc1[nH]c2ccc(C(=O)NS(=O)(=O)c3ccc(Cl)s3)cc2c1Cc1ccc2ccccc2c1Br` [Compound (23), 3-((1-bromonaphthalen-2-yl)methyl)-5-((5-chloro-2-thiophenesulfonyl)carbamoyl)-2-methylindole], the “TG concentration-decreasing activity (rate of decrease in plasma triglyceride)” value came to 9% and the “plasma glucose decreasing activity (rate of decrease in plasma glucose)” value amounted to 19%.
